Reference: patent US20220389031A1, “MACROCYCLIC SULFONYLAMIDE DERIVATIVES USEFUL AS NLRP3 INHIBITORS” (Inflazome Limited, priority 2019, published 2022)

Molecular target: NLRP3 (Homo sapiens, UniProt Q96P20)
Experiment: THP-1 cells pyroptosis assay (LPS + nigericin, resazurin readout)
Format: cell-based
Design: Seed THP-1 cells (25,000 cells/well) containing 1.0 μg/ml LPS; host or cells: THP-1 cells
Details: NLRP3 inhibitory activity, 1.0 μg/ml LPS, 3 hrs compound, nigericin 5 μM 1 hr
Protocol: THP-1 cells (ATCC #TIB-202) were grown in RPMI containing L-glutamine (Gibco #11835) supplemented with 1 mM sodium pyruvate (Sigma #S8636) and penicillin (100 units/ml)/streptomycin (0.1 mg/ml) (Sigma #P4333) in 10% Fetal Bovine Serum (FBS) (Sigma #F0804). The cells were routinely passaged and grown to confluency (˜10^6 cells/ml). On the day of the experiment, THP-1 cells were harvested and resuspended into RPMI medium (without FBS). The cells were then counted and viability (>90%) checked by Trypan blue (Sigma #T8154). Appropriate dilutions were made to give a concentration of 625,000 cells/ml. To this diluted cell solution was added LPS (Sigma #L4524) to give a […] Final Assay Concentration (FAC). 40 μl of the final preparation was aliquoted into each well of a 96-well plate. The plate thus prepared was used for compound screening.
The following method step-by-step assay was followed for compound screening. • 1. Seed THP-1 cells (25,000 cells/well) containing 1.0 μg/ml LPS in 40 μl of RPMI medium (without FBS) in 96-well, black walled, clear bottom cell culture plates coated with poly-D-lysine (VWR #734-0317) • 2. Add 5 μl compound (8 points half-log dilution, with 10 μM top dose) or vehicle (DMSO 0.1% FAC) to the appropriate wells • 3. Incubate for 3 hrs at 37° C., 5% CO2 • 4. Add 5 μl nigericin (Sigma #N7143) (FAC 5 μM) to all wells • 5. Incubate for 1 hr at 37° C., 5% CO2 • 6. At the end of the incubation period, spin plates at 300×g for 3 mins and remove supernatant • 7. Then add 50 μl of resazurin (Sigma #R7017) (FAC 100 μM resazurin in RPMI medium without FBS) and incubate plates for a further 1-2 hrs at 37° C. and 5% CO2 • 8. Plates were read in an Envision reader at Ex 560 nm and Em 590 nm • 9. IC50 data is fitted to a non-linear regression equation (log inhibitor vs response-variable slope 4-parameters)

NLRP3, sequence (Q96P20 whole entry): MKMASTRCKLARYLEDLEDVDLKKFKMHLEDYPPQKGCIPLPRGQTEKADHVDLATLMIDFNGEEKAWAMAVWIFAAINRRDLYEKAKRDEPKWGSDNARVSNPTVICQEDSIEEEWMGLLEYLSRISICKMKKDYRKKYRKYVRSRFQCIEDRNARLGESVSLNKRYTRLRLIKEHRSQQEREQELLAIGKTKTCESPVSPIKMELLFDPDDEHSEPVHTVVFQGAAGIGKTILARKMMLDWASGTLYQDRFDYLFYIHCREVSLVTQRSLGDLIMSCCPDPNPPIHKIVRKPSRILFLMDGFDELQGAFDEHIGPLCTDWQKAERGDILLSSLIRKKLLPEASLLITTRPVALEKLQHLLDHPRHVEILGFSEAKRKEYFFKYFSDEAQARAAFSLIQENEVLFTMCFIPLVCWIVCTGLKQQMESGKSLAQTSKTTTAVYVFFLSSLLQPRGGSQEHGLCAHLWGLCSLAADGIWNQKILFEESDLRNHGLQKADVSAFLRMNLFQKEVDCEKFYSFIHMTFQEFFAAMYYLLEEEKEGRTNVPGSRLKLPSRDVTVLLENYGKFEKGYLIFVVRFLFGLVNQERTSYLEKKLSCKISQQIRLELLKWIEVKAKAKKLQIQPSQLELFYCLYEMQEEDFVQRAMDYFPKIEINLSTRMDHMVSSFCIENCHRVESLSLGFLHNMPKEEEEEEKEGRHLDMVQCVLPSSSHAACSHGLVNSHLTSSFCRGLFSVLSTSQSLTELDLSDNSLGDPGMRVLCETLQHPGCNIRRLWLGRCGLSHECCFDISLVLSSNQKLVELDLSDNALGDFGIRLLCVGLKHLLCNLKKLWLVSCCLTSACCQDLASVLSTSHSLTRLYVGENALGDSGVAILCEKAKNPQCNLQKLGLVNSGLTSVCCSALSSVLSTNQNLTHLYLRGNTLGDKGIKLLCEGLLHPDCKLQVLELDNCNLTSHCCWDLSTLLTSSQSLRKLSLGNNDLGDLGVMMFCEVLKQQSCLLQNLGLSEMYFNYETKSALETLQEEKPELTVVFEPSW

**Q.** How did the IC50 turn out when `CC1(C)COc2cc(ccn2)-c2ccc3c(c2CC(=O)NS(=O)(=O)c2nn1cc2F)CCC3` [Example 6, 16-fluoro-19,19-dimethyl-21-oxa-14λ^6-thia-13,18,23,27-tetraazapentacyclo[20.3.1.1^15,18.0^2,10.0^5,9]heptacosa-1(25),2,4,9,15(27),16,22(26),23-octaene-12,14,14-trione] was run?
**A.** The IC50 was 5000 to 10000 nM.

**Q.** Which IC50 does the source give for `CC(C)c1cccc2c1CC(=O)NS(=O)(=O)c1cccc(c1)CCOc1cc-2ccn1` [Example 7] here?
**A.** Its IC50 is 1000 to 5000 nM.

**Q.** Which IC50 does the source give for `CC(C)c1cccc2c1CC(=O)NS(=O)(=O)c1nn(cc1F)CCOc1cc-2ccn1` [Example 8] here?
**A.** Its IC50 is 1000 to 5000 nM.

**Q.** For `O=C1Cc2c(ccc3c2CCC3)-c2ccnc(c2)OCCc2cccc(c2)S(=O)(=O)N1` [Example 9], which IC50 is on record?
**A.** Its IC50 is 5000 to 10000 nM.

**Q.** For `CC(C)c1cc(F)cc2c1CC(=O)NS(=O)(=O)c1nn(cc1F)CCOc1cc-2ccn1` [Example 14], which IC50 is on record?
**A.** The IC50 was 1000 to 5000 nM.

**Q.** With `CC(C)c1cc(F)cc2c1CC(=O)NS(=O)(=O)c1cccnc1OCCCOc1cc-2ccn1` [Example 18] as the compound, how does the IC50 read?
**A.** Its IC50 is 1000 to 5000 nM.

**Q.** `Cc1nn2c(C)c1S(=O)(=O)NC(=O)Cc1c(cc(F)cc1C(C)C)-c1ccnc(c1)OCC2(C)C` [Example 23] was tested. Which IC50 did it give?
**A.** The IC50 was 5000 to 10000 nM.

**Q.** How did the IC50 turn out when `CC(C)c1cc(F)cc2c1CC(=O)NS(=O)(=O)c1cc(ccc1F)CCOc1cc-2ccn1` [Example 26] was run?
**A.** The IC50 was 1000 to 5000 nM.

**Q.** With `CC(C)c1cccc2c1CC(=O)NS(=O)(=O)c1cccc(c1)C(C)(C)COc1cc-2ccn1` [Example 28] as the compound, how does the IC50 read?
**A.** Its IC50 is 1000 to 5000 nM.

**Q.** `CC(C)c1cc(F)cc2c1CC(=O)NS(=O)(=O)c1cc(cc(C3CC3)c1)CCOc1cc-2ccn1` [Example 30, 14-cyclopropyl-4-fluoro-6-(propan-2-yl)-19-oxa-11λ^6-thia-10,21-diazatetracyclo[18.3.1.11^2,16.0^2,7]pentacosa-1(23),2(7),3,5,12(25),13,15,20(24),21-nonaene-9,11,11-trione] was tested. Which IC50 did it give?
**A.** Its IC50 is 500 to 1000 nM.

**Q.** Which IC50 does the source give for `CC(C)c1cccc2c1CC(=O)NS(=O)(=O)c1ccnn1CCCCCOc1cc-2ccn1` [Example 43, 6-(propan-2-yl)-22-oxa-11λ^6-thia-10,15,16,24-tetraazatetracyclo-[21.3.1.0^2,7.0^12,16]heptacosa-1(26),2(7),3,5,12,14,23(27),24-octaene-9,11,11-trione] here?
**A.** The IC50 was 1000 to 5000 nM.

**Q.** `CC(C)c1cccc2c1CC(=O)NS(=O)(=O)N1CCCC(C1)N(C)CCOc1cc-2ccn1` (centres unmarked) [Example 45, 17-methyl-6-(propan-2-yl)-20-oxa-11λ^6-thia-10,12,17,22-tetraaza-tetracyclo[19.3.1.1^12,16.0^2,7]hexacosa-1(24),2(7),3,5,21(25),22-hexaene-9,11,11-trione] was tested. Which IC50 did it give?
**A.** Its IC50 is 1000 to 5000 nM.

**Q.** With `CC(C)c1cc(C#N)cc2c1CC(=O)NS(=O)(=O)c1cnn(c1)C(C)(C)COc1cc-2ccn1` [Example 46, 6-isopropyl-16,16-dimethyl-9,11,11-trioxo-18-oxa-11λ^6-thia-10,14,15,20-tetrazatetra-cyclo[17.3.1.1^12,15.0^2,7]tetracosa-1(23),2(7),3,5,12(24),13,19,21-octaene-4-carbonitrile] as the compound, how does the IC50 read?
**A.** The IC50 was 1000 to 5000 nM.

**Q.** How did the IC50 turn out when `CC(C)c1cc(OC(F)F)cc2c1CC(=O)NS(=O)(=O)c1cnn(c1)C(C)(C)COc1cc-2ccn1` [Example 47, 4-(difluoromethoxy)-6-isopropyl-16,16-dimethyl-11,11-dioxo-18-oxa-11λ^6-thia-10,14,15,20-tetrazatetracyclo[17-3-1-1^12,15.0^2,7]tetracosa-1(23),2(7),3,5,12(24), 13,19,21-octaen-9-one] was run?
**A.** The IC50 was 100 to 500 nM.

**Q.** For `CC(C)c1c(F)c(C#N)cc2c1CC(=O)NS(=O)(=O)c1cnn(c1)C(C)(C)COc1cc-2ccn1` [Example 48, 5-fluoro-6-isopropyl-16,16-dimethyl-9,11,11-trioxo-18-oxa-11λ^6-thia-10,14,15,20-tetrazatetracyclo[17-3-1-1^12,15.0^2,7]tetracosa-1(23),2(7),3,5,12(24),13,19,21-octaene-4-carbonitrile], which IC50 is on record?
**A.** Its IC50 is 1000 to 5000 nM.

**Q.** For `CC(C)c1c(F)c(OC(F)F)cc2c1CC(=O)NS(=O)(=O)c1cnn(c1)C(C)(C)COc1cc-2ccn1` [Example 49, 4-(difluoromethoxy)-5-fluoro-6-isopropyl-16,16-dimethyl-11,11-dioxo-18-oxa-11λ^6-thia-10,14,15,20-tetrazatetracyclo[17.3.1.1^12,15.0^2,7]tetracosa-1(23),2(7),3,5, 12(24),13,19,21-octaen-9-one], which IC50 is on record?
**A.** Its IC50 is 500 to 1000 nM.

**Q.** How did the IC50 turn out when `CC(C)c1cc(F)cc2c1CC(=O)NS(=O)(=O)c1nn(cc1C(=O)N(C)C)C(C)(C)COc1cc-2ccn1` [Example 50, 4-fluoro-6-isopropyl-N,N,16,16-tetramethyl-9,11,11-trioxo-18-oxa-11λ^6-thia-10,15,20,24-tetrazatetracyclo[17.3.1.1^12,15.0^2,7]tetracosa-1(23),2(7),3,5,12(24),13,19, 21-octaene-13-carboxamide] was run?
**A.** The IC50 was 5000 to 10000 nM.

**Q.** Which IC50 does the source give for `COCc1cc2c(c(C(C)C)c1)CC(=O)NS(=O)(=O)c1cnn(c1)C(C)(C)COc1cc-2ccn1` [Example 51, 6-isopropyl-4-(methoxymethyl)-16,16-dimethyl-11,11-dioxo-18-oxa-11λ^6-thia-10,14,15,20-tetrazatetracyclo[17-3-1-1^12,15.0^2,7]tetracosa-1(23),2(7),3,5,12(24),13,19, 21-octaen-9-one] here?
**A.** Its IC50 is at most 100 nM.

**Q.** How did the IC50 turn out when `COCc1cc2c(c(C(C)C)c1F)CC(=O)NS(=O)(=O)c1cnn(c1)C(C)(C)COc1cc-2ccn1` [Example 52, 5-fluoro-6-isopropyl-4-(methoxymethyl)-16,16-dimethyl-11,11-dioxo-18-oxa-11λ^6-thia-10,14,15,20-tetrazatetracyclo[17.3.1.1^12,15.0^2,7]tetracosa-1(23),2(7),3,5, 12(24),13,19,21-octaen-9-one] was run?
**A.** The IC50 was 100 to 500 nM.

**Q.** `CC(C)c1cc(F)cc2c1CC(=O)NS(=O)(=O)c1nn(c(CN3CCN(C)CC3)c1F)C(C)(C)COc1cc-2ccn1` [Example 53, 4,13-difluoro-6-isopropyl-16,16-dimethyl-14-[(4-methylpiperazin-1-yl)-methyl]-11,11-dioxo-18-oxa-11λ^6-thia-10,15,20,24-tetrazatetracyclo[17.3.1.1^12,15.0^2,7]-tetracosa-1(23),2(7),3,5,12(24),13,19,21-octaen-9-one] was tested. Which IC50 did it give?
**A.** The IC50 was at most 100 nM.

**Q.** How did the IC50 turn out when `CC(C)c1cc(F)cc2c1CC(=O)NS(=O)(=O)c1nn(c(C(=O)N3CCN(C)CC3)c1F)C(C)(C)COc1cc-2ccn1` [Example 54, 4,13-difluoro-6-isopropyl-16,16-dimethyl-14-(4-methylpiperazine-1-carbonyl)-11,11-dioxo-18-oxa-11λ^6-thia-10,15,20,24-tetrazatetracyclo[17.3.1.1^12,15.0^2,7]-tetracosa-1(23),2(7),3,5,12(24),13,19,21-octaen-9-one] was run?
**A.** Its IC50 is 500 to 1000 nM.

**Q.** How did the IC50 turn out when `CC(C)c1cc(F)cc2c1CC(=O)NS(=O)(=O)c1nn(c(CN3CCOCC3)c1F)C(C)(C)COc1cc-2ccn1` [Example 55, 4,13-difluoro-6-isopropyl-16,16-dimethyl-14-(morpholinomethyl)-11,11-dioxo-18-oxa-11λ^6-thia-10,15,20,24-tetrazatetracyclo[17.3.1.1^12,15.0^2,7]tetracosa-1(23),2(7),3,5,12(24),13,19,21-octaen-9-one] was run?
**A.** Its IC50 is 100 to 500 nM.

**Q.** For `CC(C)c1cc(F)cc2c1CC(=O)NS(=O)(=O)c1cnn(c1)C(C)(C)CNc1cc-2ccn1` [Example 56, 4-fluoro-6-isopropyl-16,16-dimethyl-11,11-dioxo-11λ^6-thia-10,14,15,18, 20-pentazatetracyclo[17.3.1.1^12,15.0^2,7]tetracosa-1(23),2(7),3,5,12(24),13,19,21-octaen-9-one], which IC50 is on record?
**A.** Its IC50 is at most 100 nM.
